# Measurements: patent publication US10544112B2, “Identification of ebsulfur analogues with broad-spectrum antifungal activity” (priority 2017, dated 2020)
# Legend:
# [1] = system: C. albicans ATCC 10231 (strain A); experiment: ROS production assay (DCFH-DA); format: cell-based, Candida albicans; settings: 1× and 2× MIC (H2O2 1 mM), 1-h treatment
# Experimental: ROS production assay was performed as previously described with minor modifications. […] Once entering the cells, the DCFH-DA probe is first hydrolyzed to the non-fluorescent 2′,7′-dichlorodihydrofluorescein (DCFH) by cellular esterases. […] A colony of C. albicans ATCC 10231 (strain A) was used to inoculate 5 mL of PDB in a Falcon tube and grown overnight at 35° C. at 200 rpm.
# Thus, whether the compounds of the invention would also induce ROS against C. albicans was studied. […] 2′,7′-dichlorodihydrofluorescin diacetate (DCFH-DA) was then used to detect and visualize ROS production (FIG. 5). As a positive control, cells were treated with H2O2, which is an inducer of hydroxyl radical formation.
# [2] = system: Murine red blood cells (mRBCs); experiment: Hemolytic assay
# Experimental: Hemolytic activity was determined as previously described with minor modifications (FIG. 3). […] Compounds were serially diluted in Eppendorf tubes containing H2O (100 μL). […] The tubes were then incubated for 1 h at 37° C. Tubes containing dd H2O (200 μL) and triton X-100® (1% v/v, 2 μt) served as negative (blank) and positive (100%) control, respectively. The percent hemolysis was calculated using the following equation: % hemolysis=[(absorbance of sample)−(absorbance of blank)]×100/(absorbance of positive control). Fifty percent hemolysis (HC50) values were defined as the concentrations of compounds required to lyse 50% of the mRBCs.
smiles,measurement,setting,value
CCCCCn1sc2ccccc2c1=O [Compound 3a],ROS induction (DCFH-DA fluorescence),[1],highly fluorescent
same,fold MIC lower than the hemolytic concentration,[2]; Aspergillus strains,≥ 195 fold
same,fold MIC lower than the hemolytic concentration,[2]; Candida strains,at least 5 fold
same,hemolytic concentration,"[2]; mRBCs, 1 h at 37° C.",approximately 3.9 μg/mL
